Laboratory results as given in patent US20240156104A1, “FUNGI-DERIVED COMPOSITION, ITS PRODUCTION PROCESS AND USES” (NATURAL RESOURCES INSTITUTE FINLAND (LUKE), priority 2021, published 2024).

Tested on: coxsackievirus A9 (CVA9)
Assay: cytopathic effect (CPE) inhibition assay against CVA9 in A549 cells
Type: cell-based
Conditions: virus treated 37° C. 1 hour; for antiviral activity of commercial ganoderic acid against CVA9 (FIG. 10A): 100 μM, 500 μM, 1 mM, 5 mM and 10 mM; for antiviral activity of commercial ganoderic acids against CVA9 (FIG. 10B): 12.5 μM, 25 μM, 50 μM, 100 μM and 500 μM, MOI 100

Structure (SMILES) | antiviral activity of commercial ganoderic acid against CVA9 (FIG. 10A) (MOI 66.7) | antiviral activity of commercial ganoderic acid against CVA9 (FIG. 10A) (MOI 66.7, listed as Ganoderic Acid A) | antiviral activity of commercial ganoderic acids against CVA9 (FIG. 10B)
C[C@H](CC(=O)C[C@@H](C)[C@H]1C[C@H](O)[C@@]2(C)C3=C(C(=O)C[C@]12C)[C@@]1(C)CCC(=O)C(C)(C)[C@@H]1C[C@@H]3O)C(=O)O [GA A, Ganoderic Acid A] | fails to demonstrate any antiviral activity | does not possess any antiviral activity | –
CC(=O)O[C@H]1C[C@H]([C@H](C)CC/C=C(\C)C(=O)O)[C@@]2(C)CC=C3C(=CC[C@H]4C(C)(C)C(=O)CC[C@]34C)[C@]12C [GA TQ, Ganoderic Acid TQ] | – | – | fails to demonstrate any antiviral activity
C/C(=C\CC[C@@H](C)[C@H]1C[C@H](O)[C@@]2(C)C3=CC[C@H]4C(C)(C)C(=O)CC[C@]4(C)C3=CC[C@]12C)C(=O)O [GA TR, Ganoderic Acid TR] | – | – | fails to demonstrate any antiviral activity
C/C(=C\CC[C@@H](C)[C@H]1CC[C@@]2(C)C3=CC[C@H]4C(C)(C)[C@@H](O)CC[C@]4(C)C3=CC[C@]12C)C(=O)O [GA Y, Ganoderic Acid Y] | – | – | fails to demonstrate any antiviral activity
